According to patent publication US8071625B2, “Certain chemical entities, compositions, and methods” (Cytokinetics, Inc., priority 2006, dated 2011):

Target: T1, crosslinked smooth muscle actomyosin (chicken gizzard smooth muscle myosin subfragment-1 crosslinked to cardiac or skeletal actin) (Gallus gallus, UniProt P10587)
T1 construct: chicken gizzard smooth muscle myosin subfragment-1; from tissue; host or cells: chicken gizzard
Experiment: Lead optimization pyruvate kinase/horseradish peroxidase/pyruvate oxidase-coupled ATPase assay (compound dose response)
Type: biochemical
Settings: read-out: IC50 Arithmetic Mean
Procedure: Screening assays were performed using a pyruvate kinase and lactate dehydrogenase-coupled ATPase assay containing the following reagents: Potassium PIPES (50 mM), MgCl2 (3 mM), KCl (100 mM), ATP (0.15 mM), DTT (1 mM), BSA (0.1 mg/ml), NADH (0.5 mM), PEP (1.5 mM), pyruvate kinase (4 U/ml), lactate dehydrogenase (8 U/ml), and antifoam (50 ppm) (concentrations expressed are final assay concentrations). The pH was adjusted to 6.80 at 22° C. by addition of potassium hydroxide. Lead optimization assays were performed with a more sensitive pyruvate kinase/horseradish peroxidase/pyruvate oxidase-coupled ATPase assay containing the following reagents: Potassium PIPES (12 mM), MgCl2 (2 mM), KCl (100 mM), ATP (0.15 mM), BSA (0.05 mg/ml), potassium phosphate (2 mM), amplex red (0.1 mM), PEP (0.1 mM), pyruvate kinase (4 U/ml), horseradish peroxidase (0.5 U/ml), pyruvate oxidase (0.5 U/ml), and antifoam (50 ppm) (concentrations expressed are final assay concentrations). The pH was adjusted to 7.00 at 22° C. by addition of potassium hydroxide.
The protein components specific to this assay are chicken gizzard smooth muscle myosin subfragment-1 that has been chemically crosslinked to either cardiac or skeletal actin using an excess of 1-Ethyl-3-[3-dimethylaminopropyl]carbodiimide hydrochloride and N-hydroxysuccinimide. The exact concentration of the crosslinked smooth muscle myosin in the assay is determined empirically, by titration to achieve a desired rate of ATP hydrolysis. The concentration varies between protein preparations due to variations in the fraction of active molecules in each preparation.
Compound dose response assays are performed by first preparing a dilution series of test compound, each with an assay mixture containing potassium PIPES, MgCl2, KCl, ATP, BSA, potassium phosphate, amplex red, PEP, crosslinked smooth muscle actomyosin (subfragment-1), antifoam, and water. The assay is started by adding an equal volume of solution containing potassium Pipes, MgCl2, KCl, BSA, potassium phosphate, pyruvate kinase, horseradish peroxidase, pyruvate oxidase, antifoam, and water. ATP hydrolysis is monitored by measuring the fluorescence of amplex red (excitation at 480 nm, emission at 615 nm). The resulting dose response curve is fit by the 4 parameter equation y=Bottom+((Top-Bottom)/(1+((IC50/X)^Hill))). The IC50 is defined as the concentration at which ATPase activity is midway between the top and bottom of the dose response curve.

Structure (SMILES) | IC50
CCc1ccc(NC(=O)OCC2(C(=O)NCc3ccccc3Cl)CCN(C(=O)C(N)CO)CC2)cc1 (centres unmarked) [(1-(2-amino-3-hydroxypropanoyl)-4-{[N-(4-ethylphenyl)carbamoyloxy]methyl}(4-piperidyl))-N-[(2-chlorophenyl)methyl]carboxamide] | 143 nM
CCc1ccc(NC(=O)OCC2(C(=O)NCc3ccccc3Cl)CCN(C(=O)C(N)C(C)C)CC2)cc1 (centres unmarked) [(1-(2-amino-3-methylbutanoyl)-4-{[N-(4-ethylphenyl)carbamoyloxy]methyl}(4-piperidyl))-N-[(2-chlorophenyl)methyl]carboxamide] | 540 nM
CCc1ccc(NC(=O)OCC2(C(=O)NCc3ccccc3Cl)CCCN(C(=O)CN)C2)cc1 (centres unmarked) [(1-(2-aminoacetyl)-3-{[N-(4-ethylphenyl)carbamoyloxy]methyl}(3-piperidyl))-N-[(2-chlorophenyl)methyl]carboxamide] | 474 nM
CCc1ccc(NC(=O)OCC2(C(=O)NCc3ccccc3Cl)CCN(C(=O)CN)C2)cc1 (centres unmarked) [(1-(2-aminoacetyl)-3-{[N-(4-ethylphenyl)carbamoyloxy]methyl}pyrrolidin-3-yl)-N-[(2-chlorophenyl)methyl]carboxamide] | 526 nM
CCc1ccc(NC(=O)OCCC2(C(=O)NCc3ccccc3Cl)CCN(C(=O)CN)CC2)cc1 [(1-(2-aminoacetyl)-4-{2-[N-(4-ethylphenyl)carbamoyloxy]ethyl}(4-piperidyl))-N-[(2-chlorophenyl)methyl]carboxamide] | 2440 nM
Cc1ccc(NC(=O)OCC2(C(=O)NCc3ccccc3Cl)CCN(C(=O)CN)CC2)c(Cl)c1 [(1-(2-aminoacetyl)-4-{[N-(2-chloro-4-methylphenyl)carbamoyloxy]methyl}(4-piperidyl))-N-[(2-chlorophenyl)methyl]carboxamide] | 281 nM
Cc1ccc(NC(=O)OCC2(C(=O)NCc3ccccc3Cl)CCN(C(=O)CN)CC2)cc1F [(1-(2-aminoacetyl)-4-{[N-(3-fluoro-4-methylphenyl)carbamoyloxy]methyl}(4-piperidyl))-N-[(2-chlorophenyl)methyl]carboxamide] | 742 nM
NCC(=O)N1CCC(COC(=O)Nc2ccc(Cl)cc2)(C(=O)NCc2ccccc2Cl)CC1 [(1-(2-aminoacetyl)-4-{[N-(4-chlorophenyl)carbamoyloxy]methyl}(4-piperidyl))-N-[(2-chlorophenyl)methyl]carboxamide] | 569 nM
N#Cc1ccc(NC(=O)OCC2(C(=O)NCc3ccccc3Cl)CCN(C(=O)CN)CC2)cc1 [(1-(2-aminoacetyl)-4-{[N-(4-cyanophenyl)carbamoyloxy]methyl}(4-piperidyl))-N-[(2-chlorophenyl)methyl]carboxamide] | 7780 nM
CCc1ccc(NC(=O)OCC2(C(=O)NCc3ccccc3Cl)CCN(C(=O)CN)CC2)cc1 [(1-(2-aminoacetyl)-4-{[N-(4-ethylphenyl)carbamoyloxy]methyl}(4-piperidyl))-N-[(2-chlorophenyl)methyl]carboxamide] | 175 nM
CCc1ccc(NC(=O)OCC2(C(=O)NCc3ccccc3C#N)CCN(C(=O)CN)CC2)cc1 [(1-(2-aminoacetyl)-4-{[N-(4-ethylphenyl)carbamoyloxy]methyl}(4-piperidyl))-N-[(2-cyanophenyl)methyl]carboxamide] | 904 nM
CCc1ccc(NC(=O)OCC2(C(=O)NCc3ccccc3F)CCN(C(=O)CN)CC2)cc1 [(1-(2-aminoacetyl)-4-{[N-(4-ethylphenyl)carbamoyloxy]methyl}(4-piperidyl))-N-[(2-fluorophenyl)methyl]carboxamide] | 307 nM
CCc1ccc(NC(=O)OCC2(C(=O)NCc3ccccc3OC)CCN(C(=O)CN)CC2)cc1 [(1-(2-aminoacetyl)-4-{[N-(4-ethylphenyl)carbamoyloxy]methyl}(4-piperidyl))-N-[(2-methoxyphenyl)methyl]carboxamide] | 2160 nM
CCc1ccc(NC(=O)OCC2(C(=O)NCc3ccccc3C)CCN(C(=O)CN)CC2)cc1 [(1-(2-aminoacetyl)-4-{[N-(4-ethylphenyl)carbamoyloxy]methyl}(4-piperidyl))-N-[(2-methylphenyl)methyl]carboxamide] | 167 nM
CCc1ccc(NC(=O)OCC2(C(=O)NCc3ccccc3)CCN(C(=O)CN)CC2)cc1 [(1-(2-aminoacetyl)-4-{[N-(4-ethylphenyl)carbamoyloxy]methyl}(4-piperidyl))-N-benzylcarboxamide] | 8110 nM
CCc1ccc(NC(=O)OCC2(C(=O)NCc3ccccc3CO)CCN(C(=O)CN)CC2)cc1 [(1-(2-aminoacetyl)-4-{[N-(4-ethylphenyl)carbamoyloxy]methyl}(4-piperidyl))-N-{[2-(hydroxymethyl)phenyl]methyl}carboxamide] | 949 nM
NCC(=O)N1CCC(COC(=O)Nc2ccc(F)cc2)(C(=O)NCc2ccccc2Cl)CC1 [(1-(2-aminoacetyl)-4-{[N-(4-fluorophenyl)carbamoyloxy]methyl}(4-piperidyl))-N-[(2-chlorophenyl)methyl]carboxamide] | 14600 nM
Cc1ccc(NC(=O)OCC2(C(=O)NCc3ccccc3Cl)CCN(C(=O)CN)CC2)cc1 [(1-(2-aminoacetyl)-4-{[N-(4-methylphenyl)carbamoyloxy]methyl}(4-piperidyl))-N-[(2-chlorophenyl)methyl]carboxamide] | 191 nM
NCC(=O)N1CCC(COC(=O)Nc2ccc(-c3ccccc3)cc2)(C(=O)NCc2ccccc2Cl)CC1 [(1-(2-aminoacetyl)-4-{[N-(4-phenylphenyl)carbamoyloxy]methyl}(4-piperidyl))-N-[(2-chlorophenyl)methyl]carboxamide] | 277 nM
CCc1ccc(NC(=O)OCC2(C(=O)NCc3ccccc3Cl)CCN(CCN)CC2)cc1 [(1-(2-aminoethyl)-4-{[N-(4-ethylphenyl)carbamoyloxy]methyl}(4-piperidyl))-N-[(2-chlorophenyl)methyl]carboxamide] | 1160 nM
CCc1ccc(NC(=O)OCC2(C(=O)NCc3ccccc3Cl)CCN(C(=O)C(O)CN)CC2)cc1 (centres unmarked) [(1-(3-amino-2-hydroxypropanoyl)-4-{[N-(4-ethylphenyl)carbamoyloxy]methyl}(4-piperidyl))-N-[(2-chlorophenyl)methyl]carboxamide] | 120 nM
CCc1ccc(NC(=O)OCC2(C(=O)NCc3ccccc3Cl)CCN(C(=O)C(O)CCN)CC2)cc1 (centres unmarked) [(1-(4-amino-2-hydroxybutanoyl)-4-{[N-(4-ethylphenyl)carbamoyloxy]methyl}(4-piperidyl))-N-[(2-chlorophenyl)methyl]carboxamide] | 187 nM
CCc1ccc(NC(=O)OCC2(C(=O)NCc3ccccc3Cl)CCN(C(=O)CCCN)CC2)cc1 [(1-(4-aminobutanoyl)-4-{[N-(4-ethylphenyl)carbamoyloxy]methyl}(4-piperidyl))-N-[(2-chlorophenyl)methyl]carboxamide] | 246 nM
CCc1ccc(NC(=O)OCC2(C(=O)NCc3ccccc3Cl)CCN(C(=O)[C@H](N)CO)CC2)cc1 [(1-((2R)-2-amino-3-hydroxypropanoyl)-4-{[N-(4-ethylphenyl)carbamoyloxy]methyl}(4-piperidyl))-N-[(2-chlorophenyl)methyl]carboxamide] | 164 nM
CCc1ccc(NC(=O)OCC2(C(=O)NCc3ccccc3Cl)CCN(C(=O)[C@@H](C)N)CC2)cc1 [(1-((2R)-2-aminopropanoyl)-4-{[N-(4-ethylphenyl)carbamoyloxy]methyl}(4-piperidyl))-N-[(2-chlorophenyl)methyl]carboxamide] | 255 nM
CCc1ccc(NC(=O)OCC2(C(=O)NCc3ccccc3Cl)CCCN(C(=O)[C@@H](N)CO)C2)cc1 (stereo partly drawn) [(1-((2S)-2-amino-3-hydroxypropanoyl)-3-{[N-(4-ethylphenyl)carbamoyloxy]methyl}(3-piperidyl))-N-[(2-chlorophenyl)methyl]carboxamide] | 1480 nM
CCc1ccc(NC(=O)OCC2(C(=O)NCc3ccccc3Cl)CCN(C(=O)[C@@H](N)CO)CC2)cc1 [(1-((2S)-2-amino-3-hydroxypropanoyl)-4-{[N-(4-ethylphenyl)carbamoyloxy]methyl}(4-piperidyl))-N-[(2-chlorophenyl)methyl]carboxamide] | 125 nM
CCc1ccc(NC(=O)OCC2(C(=O)NCc3ccccc3Cl)CCN(C(=O)[C@H](C)N)CC2)cc1 [(1-((2S)-2-aminopropanoyl)-4-{[N-(4-ethylphenyl)carbamoyloxy]methyl}(4-piperidyl))-N-[(2-chlorophenyl)methyl]carboxamide] | 724 nM
CCc1ccc(NC(=O)OCC2(C(=O)NCc3ccccc3Cl)CCN(C(=O)C3CCN3)CC2)cc1 (centres unmarked) [(1-(azetidin-2-ylcarbonyl)-4-{[N-(4-ethylphenyl)carbamoyloxy]methyl}(4-piperidyl))-N-[(2-chlorophenyl)methyl]carboxamide] | 221 nM
